Values belong to the compound of their own block, whether it stands above or below them.
Biological target: T1, Axl (Homo sapiens, UniProt P30530)
T1 construct: endogenous in cells; host or cells: HeLa cells
T1 sequence (P30530 26-894): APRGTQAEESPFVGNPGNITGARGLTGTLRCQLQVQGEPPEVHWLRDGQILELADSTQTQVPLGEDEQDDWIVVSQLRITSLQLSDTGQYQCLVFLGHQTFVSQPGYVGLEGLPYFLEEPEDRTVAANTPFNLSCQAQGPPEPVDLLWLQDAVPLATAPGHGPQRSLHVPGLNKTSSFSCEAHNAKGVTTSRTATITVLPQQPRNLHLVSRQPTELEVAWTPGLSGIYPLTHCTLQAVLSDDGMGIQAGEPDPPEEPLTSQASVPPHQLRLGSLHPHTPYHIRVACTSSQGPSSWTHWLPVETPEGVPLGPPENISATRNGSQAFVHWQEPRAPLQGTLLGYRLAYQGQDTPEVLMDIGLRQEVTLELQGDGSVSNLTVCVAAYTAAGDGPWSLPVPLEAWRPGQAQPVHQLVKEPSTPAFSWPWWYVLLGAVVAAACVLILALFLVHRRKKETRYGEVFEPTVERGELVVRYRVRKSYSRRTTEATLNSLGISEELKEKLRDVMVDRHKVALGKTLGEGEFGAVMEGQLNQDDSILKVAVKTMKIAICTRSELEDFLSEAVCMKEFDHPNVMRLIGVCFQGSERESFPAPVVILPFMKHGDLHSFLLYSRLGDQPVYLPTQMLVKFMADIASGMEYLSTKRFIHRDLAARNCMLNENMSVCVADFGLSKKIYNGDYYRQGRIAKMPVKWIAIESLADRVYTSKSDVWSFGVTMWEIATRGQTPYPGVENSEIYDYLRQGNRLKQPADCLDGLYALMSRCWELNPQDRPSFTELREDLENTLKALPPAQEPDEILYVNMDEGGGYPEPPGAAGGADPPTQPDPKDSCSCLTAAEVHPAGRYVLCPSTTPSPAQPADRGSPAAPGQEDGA
Experiment: Phospho-Akt in-cell Western assay
Assay type: cell-based
Conditions: Hela cells, Axl antibody cross-linking stimulation, phospho-Akt readout
Method: Phospho-Akt in-Cell Western Assay
The compounds of the invention were tested in the following assay for their ability to inhibit Axl activity.
• Cell culture plate: 96 well assay plate (Corning 3610), white, clear bottom, tissue-culture treated. • Cells: Hela cells. • Starvation medium: For Axl stimulation: 0.5% FCS (fetal calf serum) in DMEM, plus Axl/Fc (extracellular domain of AXL fused to immunoglobulin Fc region) (R&D, 154-AL) 500 ng/mL. • For EGF (epidermal growth factor) stimulation: 0.5% FCS in DMEM (Dulbecco's modified Eagles medium). • Poly-L-Lysine 0.01% solution (the working solution): 10 μg/ml, dilute In PBS (phosphate buffered saline). • Axl antibody cross-linking: • 1st: Mouse anti-Axl (R&D, MAB154). • 2nd: Biotin-SP-conjugated AffiniPure goat anti-mouse IgG (H+L) (Jackson ImmunoResearch #115-065-003). • Fixing buffer: 4% formaldehyde in PBS. • Wash buffer: 0.1% TritonX-100 in PBS. • Quenching buffer: 3% H2O2, 0.1% Azide in wash buffer, Azide and hydrogen peroxide (H2O2) are added fresh. • Blocking buffer: 5% BSA in TBST (tris buffered saline plus 0.1% Tween 20). • Primary antibody: Rabbit anti-human Phospho-Akt antibody (Cell Signaling 9271): 1×250 diluted in blocking buffer. • Secondary antibody: HRP (horse radish peroxidase)-conjugated Goat anti-Rabbit secondary, stock solution: Jackson ImmunoResearch (Goat anti-Rabbit HRP, #111-035-144) 1:1 diluted in glycerol, store at −20° C. The working solution: 1×2000 dilution of stock in blocking buffer. • Chemiluminescent working solution (Pierce, 37030): SuperSignal ELISA (enzyme linked immunosorbant assay) Pico Chemiluminescent substrate. • Crystal Violet solution: Stock: 2.5% Crystal violet in methanol, filtered and kept at ambient temperature. The working solution: dilute the stock 1:20 with PBS immediately before use. • 10% SDS: working solution: 5% SDS (sodium dodecylsulfate), diluted in PBS Methods: Day 1:
A 96 well TC (tissue culture treated) plate was coated with 10 μg/mL poly-L-Lysine at 37° C. for 30 min, washed twice with PBS, and air-dried for 5 minutes before cells were added. Hela cells were seeded at 10,000 cells/well and the cells were starved in 100 μL starvation medium containing Axl/Fc for 24 hrs.
The cells were pre-treated with test compounds by adding 100 μL of 2× test compound to the starvation medium on the cells. The cells were incubated at 37° C. for 1 hr before stimulation.
The cells were stimulated by Axl-antibody cross-linking as follows: A 5×1st/2nd Axl antibody mixture was made (37.5 μg/mL 1st/100 μg/mL 2nd) in starvation medium and nutated at 4° C. with thorough mixing for 1-2 hours for clustering. The resulting mix was warmed to 37° C. 50 μL of 5× Axl 1st/2nd of antibody cluster was added to the cells and the cells were incubated at 37° C. for 5 min.
After 5 minutes stimulation, the plate was flicked to remove medium and the plate was tapped onto paper towels. Formaldehyde (4.0% in PBS, 100 μL) was added to fix the cells and the cells were incubated at ambient temperature for 20 min without shaking.
The cells were washed with a plate washer buffer to remove the formaldehyde solution. The plate was flicked to removed excess wash buffer and tapped onto paper towels. Quenching buffer (100 μL) was added to each well and the cells were incubated at ambient temperature for 20 minutes without shaking.
The cells were washed with a plate washer buffer to remove the quenching buffer. Blocking buffer (100 μL) was added and the cells were incubated at ambient temperature for at least an hour with gentle shaking.
The cells were washed with a plate washer buffer and diluted primary antibody (50 μL) was added to each well (blocking buffer was added to the negative control wells instead). The plates were incubated overnight at 4° C. with gentle shaking.
The wash buffer was removed, diluted secondary antibody (100 μL) was added, and the cells were incubated at ambient temperature for 1 hour with gentle shaking. […]

Compound: C[C@H]1CN(c2ccc(Nc3nc(N)n(-c4nnc(-c5ccccc5)c5c4C4CCC5CC4)n3)cn2)CCN1CC1CC1 [Compound 21, (3S)-1-(4-phenyl-5,8-ethano-5,6,7,8-tetrahydrophthalazine-1-yl)-N^3-(6-(4-(cyclopropylmethyl)-3-methylpiperazin-1-yl)pyridin-3-yl)-1H-1,2,4-triazole-3,5-diamine]
IC50 (Table 7, formula (V)): 1000 to 10000 nM

Compound: Nc1nc(Nc2ccc(N3CCC(N4CCCC4)CC3)c(F)c2)nn1-c1cc(-c2ccc(F)cc2)c2c(n1)C1CCN2CC1 [Compound 8, 1-(1,4-ethano-8-(4-fluorophenyl)-1,2,3,4-tetrahydro-1,5-naphthyridin-6-yl)-N^3-(4-(4-(pyrrolidin-1-yl)piperidinyl)-3-fluorophenyl)-1H-1,2,4-triazole-3,5-diamine]
IC50 (Table 3, formula (II)): < 1000 nM

Compound: CC(C)CN(CC(C)C)[C@H]1CCc2ccc(Nc3nc(N)n(-c4cc(-c5ccccc5)c5c(n4)C4CCN5CC4)n3)cc2CC1 [Compound 41, (7S)-1-(1,4-ethano-8-phenyl-1,2,3,4-tetrahydro-1,5-naphthyridin-6-yl)-N^3-(7-(diisobutylamino)-6,7,8,9-tetrahydro-5H-benzo[7]annulene-2-yl)-1H-1,2,4-triazole-3,5-diamine]
IC50 (Table 4, formula (III)): < 1000 nM

Compound: C[C@H]1CN(c2ccc(Nc3nc(N)n(-c4nnc(-c5ccccc5Cl)c5c4C4CCC5CC4)n3)cn2)CCN1CC1CC1 [Compound 22, (3S)-1-(4-(2-chlorophenyl)-5,8-ethano-5,6,7,8-tetrahydrophthalazine-1-yl)-N^3-(6-(4-(cyclopropylmethyl)-3-methylpiperazin-1-yl)pyridin-3-yl)-1H-1,2,4-triazole-3,5-diamine]
IC50 (Table 7, formula (V)): < 1000 nM

Compound: Cc1cccc(-c2nnc(-n3nc(Nc4ccc(N5CCN(CC6CC6)[C@@H](C)C5)nc4)nc3N)c3c2C2CCC3CC2)c1 [Compound 23, (3S)-1-(4-(3-methylphenyl)-5,8-ethano-5,6,7,8-tetrahydrophthalazine-1-yl)-N^3-(6-(4-(cyclopropylmethyl)-3-methylpiperazin-1-yl)pyridin-3-yl)-1H-1,2,4-triazole-3,5-diamine]
IC50 (Table 7, formula (V)): 1000 to 10000 nM

Compound: Nc1nc(Nc2cnc3c(c2)CC(NC2CCCC2)CC3)nn1-c1cc(-c2ccccc2)c2c(n1)C1CCN2CC1 (centres unmarked) [Compound 5, 1-(1,4-ethano-8-phenyl-1,2,3,4-tetrahydro-1,5-naphthyridin-6-yl)-N^3-(6-(cyclopentylamino)-5,6,7,8-tetrahydroquinoline-3-yl)-1H-1,2,4-triazole-3,5-diamine]
IC50 (Table 1, formula (Ia)): < 1000 nM

Compound: COc1cccc(-c2cc(-n3nc(Nc4ccc(N5CCC(N6CCCC6)CC5)c(F)c4)nc3N)nc3c2N2CCC3CC2)c1 [Compound 11, 1-(1,4-ethano-8-(3-methoxyphenyl)-1,2,3,4-tetrahydro-1,5-naphthyridin-6-yl)-N^3-(4-(4-(pyrrolidin-1-yl)piperidinyl)-3-fluorophenyl)-1H-1,2,4-triazole-3,5-diamine]
IC50 (Table 3, formula (II)): < 1000 nM

Compound: C[C@H]1CN(c2ccc(Nc3nc(N)n(-c4nnc(-c5ccncc5)c5c4C4CCC5CC4)n3)cn2)CCN1CC1CC1 [Compound 24, (3S)-1-(4-(pyridin-4-yl)-5,8-ethano-5,6,7,8-tetrahydrophthalazine-1-yl)-N^3-(6-(4-(cyclopropylmethyl)-3-methylpiperazin-1-yl)pyridin-3-yl)-1H-1,2,4-triazole-3,5-diamine]
IC50 (Table 7, formula (V)): 1000 to 10000 nM

Further lines, results first:

IC50 (Table 5, formula (IVa)): < 1000 nM
Compound: Nc1nc(Nc2ccc(N3CCC(N4CCCC4)CC3)c(F)c2)nn1-c1nnc(-c2ccc3c(c2)OCO3)c2c1C1CCC2CC1 [Compound 17, 1-(4-(benzo[d][1,3]dioxol-5-yl)-5,8-ethano-5,6,7,8-tetrahydrophthalazine-1-yl)-N^3-(4-(4-(pyrrolidin-1-yl)piperidinyl)-3-fluorophenyl)-1H-1,2,4-triazole-3,5-diamine]

IC50 (Table 5, formula (IVa)): < 1000 nM
Compound: Nc1nc(Nc2ccc(N3CCC(N4CCCC4)CC3)c(F)c2)nn1-c1nnc(Cl)c2c1C1CCC2CC1 [Compound 13, 1-(4-chloro-5,8-ethano-5,6,7,8-tetrahydrophthalazine-1-yl)-N^3-(4-(4-(pyrrolidin-1-yl)piperidinyl)-3-fluorophenyl)-1H-1,2,4-triazole-3,5-diamine]

IC50 (Table 5, formula (IVa)): < 1000 nM
Compound: Nc1nc(Nc2ccc(N3CCC(N4CCCC4)CC3)c(F)c2)nn1-c1nnc(-c2ccccc2Cl)c2c1C1CCC2CC1 [Compound 15, 1-(4-(2-chlorophenyl)-5,8-ethano-5,6,7,8-tetrahydrophthalazine-1-yl)-N^3-(4-(4-(pyrrolidin-1-yl)piperidinyl)-3-fluorophenyl)-1H-1,2,4-triazole-3,5-diamine]

IC50 (Table 5, formula (IVa)): < 1000 nM
Compound: N#Cc1cccc(-c2nnc(-n3nc(Nc4ccc(N5CCC(N6CCCC6)CC5)c(F)c4)nc3N)c3c2C2CCC3CC2)c1 [Compound 16, 1-(4-(3-cyanophenyl)-5,8-ethano-5,6,7,8-tetrahydrophthalazine-1-yl)-N^3-(4-(4-(pyrrolidin-1-yl)piperidinyl)-3-fluorophenyl)-1H-1,2,4-triazole-3,5-diamine]

IC50 (Table 8, formula (VI)): < 1000 nM
Compound: N#Cc1cccc(-c2nnc(-n3nc(Nc4ccc5c(c4)CCC(N4CCCC4)CC5)nc3N)c3c2C2CCC3CC2)c1 (centres unmarked) [Compound 31, 1-(4-(3-cyanophenyl)-5,8-ethano-5,6,7,8-tetrahydrophthalazine-1-yl)-N^3-(7-(pyrrolidin-1-yl)-6,7,8,9-tetrahydro-5H-benzo[7]annulene-2-yl)-1H-1,2,4-triazole-3,5-diamine]

IC50 (Table 6, formula (IVb)): 1000 to 10000 nM
Compound: Nc1nc(Nc2ccc(N3CCC(N4CCCC4)CC3)c(F)c2)n(-c2nnc(Cl)c3c2C2CCC3CC2)n1 [Compound 14, 1-(4-chloro-5,8-ethano-5,6,7,8-tetrahydrophthalazine-1-yl)-N^5-(4-(4-(pyrrolidin-1-yl)piperidinyl)-3-fluorophenyl)-1H-1,2,4-triazole-3,5-diamine]

— patent US9206161B2, “Bridged bicyclic heteroaryl substituted triazoles useful as Axl inhibitors” (Rigel Pharmaceuticals, Inc., priority 2008, dated 2015)
